This note sets out measurements from patent US11628186B2, “Method and composition for the reduction of viral replication, duration and spread of the COVID-19 and the flu” (priority 2017, dated 2023).

Several values for one entry are separate records, joined by “and”; a condition that tells them apart may be missing. Identical values can stand only once.

The test system of data set [1] is patients with chronic Hypoxemia. Kind of data set: Various drugs with or without pre-inhaled pyruvate formulas (Table VII). Details: SaO2 Measurements taken after medication and compared to baseline / SaO2 Measurements taken after taking the medication and compared to baseline: unit not given here. The class given is in vivo, human. The method, then: With the hundreds of patients tested in our various clinical trials, data was gathered as to the type of medications the patients used and the frequency of their use over a six-month period. The patients were asked to rate their medications form 1-10 with 1 being the most irritating with the most side effects and 10 being the best with no irritation and no side effects. In these clinical trials, various drugs were evaluated for irritation, mucus production, and efficacy in humans. The drugs were all evaluated using their current formulations and concentrations against the same formulations with the addition of sodium pyruvate, with the calcium, phosphate and magnesium formula given just prior to the use of their medications. They were instructed to 20 inhale this formula just prior to the use of their medications and to evaluate the effect of their medications on the 1-10 scale.
Patients on the various inhaled medications whether inhaled or taken orally or by IV infusion, were enlisted in the evaluation of the inhaled sodium pyruvate calcium, phosphate and magnesium formula. The patients were tested for their SaO2 levels and those that had SaO2 levels below 92% were asked to enlist in the study. […] After the SaO2 levels were determined prior to and one hour after taking their medications, the patients returned the following day, SaO2 measurements were taken one hour prior to taking their medications. The patients were then handed the hypotonic inhalation formula of sodium pyruvate with calcium, phosphate magnesium formula and instructed to inhale it one hour before taking their medications, SaO2 measurements were then taken one hour after taking their medications.

The subject of data set [2] is patients with lung diseases including COPD. As to the kind of experiment: Comparison of inhaled salts of pyruvate, 5 ml of 0.5 mM solution (Table I). Here is the method:
All previous studies using pyruvate to treat Allergic Rhinitis, Asthmatic and COPD patients used only the sodium salt form of pyruvic acid in saline. The drug products that were tested in the six Phase I/II clinical trial were differing concentrations of sodium pyruvate dissolved in 0.9% sodium chloride solution (Saline). These drug products contained 0.5 mM, 1.5 mM, or 5.0 mM of sodium pyruvate in physiological saline. They were administered to normal volunteers and COPD and asthmatics by inhalation therapy. […] Various sodium pyruvate solutions were evaluated in the lungs for their ability to enhance FEV1 values and reduce coughing, and lung tightness.
The amount of the salts delivered in the 5 ml's of the 0.5 mM pyruvate solutions were compared to the amounts of the salts in 5 ml's of human blood. […] When ethyl pyruvate reacts with oxygen radical like hydrogen peroxide, it is converted to ethane and alcohol and Co2 and acetate. Ethane and alcohol are lung irritants.
This formula can also be made by adding 3% calcium phosphate or dicalcium phosphate to the standard 0.5 mM to 30 mM sodium pyruvate saline solution see Table I.

[3] abbreviates: Drug in commercial formula taken in prescribed way.
Setting [4] is: Drug in commercial formula with Pre-inhaled sodium pyruvate, calcium & phosphate & magnesium.
Where [5] appears, read: Drug in commercial formula with pre-inhaled sodium pyruvate saline only.
[6] abbreviates: Drugs commercial formula given as instructed in the package.
Where [7] appears, read: Drugs in commercial formula Pre-inhaled sodium pyruvate & calcium & phosphate & magnesium.
[8] abbreviates: Drugs in commercial formula with pre-inhaled sodium pyruvate in saline only.

`C/C(=C\C(=O)OCCCCCCCCC(=O)O)C[C@@H]1OC[C@H](C[C@@H]2O[C@H]2[C@@H](C)[C@H](C)O)[C@@H](O)[C@H]1O` [Mupirocin]: the “SaO2 Measurements taken after medication and compared to baseline” value in data set [1] (setting [3]) was 0. In data set [1] (setting [4]), the “SaO2 measurements taken after taking medication and compared to baseline” value is reported as “+4”. The “SaO2 Measurements taken after taking the medication and compared to baseline” value in data set [1] (setting [5]) was found to be 0. Further, the “Lung functions (rating 1-10)” value is 4 in data set [1] (setting [6]), 8 in data set [1] (setting [7]) and 6 in data set [1] (setting [8]).

On to `Clc1ccccc1C(c1ccccc1)(c1ccccc1)n1ccnc1` [Chlotrimizole], for which the “SaO2 Measurements taken after medication and compared to baseline” value in data set [1] (setting [3]) is −2. Further, the “SaO2 measurements taken after taking medication and compared to baseline” value in data set [1] (setting [4]) is “+1”. In addition, the “SaO2 Measurements taken after taking the medication and compared to baseline” value in data set [1] (setting [5]) is listed as “+1”. The “Lung functions (rating 1-10)” value in data set [1] (setting [6]) was 4; in data set [1] (setting [7]) it was 8; in data set [1] (setting [8]), 6.

As to `NC(=O)c1ncn([C@@H]2O[C@H](CO)[C@@H](O)[C@H]2O)n1` [Ribavirin], the “SaO2 Measurements taken after medication and compared to baseline” value in data set [1] (setting [3]) is −3. In addition, the “SaO2 measurements taken after taking medication and compared to baseline” value in data set [1] (setting [4]) is “+2”. The “SaO2 Measurements taken after taking the medication and compared to baseline” value in data set [1] (setting [5]) came out at 0. Moreover, the “Lung functions (rating 1-10)” value in data set [1] (setting [6]) was found to be 5; in data set [1] (setting [7]) it was 7; in data set [1] (setting [8]), 6.

As to `CCOC(=O)C(C)=O` [ethyl pyruvate, reference compound], the “FEV1” value in data set [2] (5 mls of a 0.5 mM pyruvate inhalation solution in COPD and asthmatic patients) is listed as “did not increase FEV-1”. Besides, the “Irritation” value in data set [2] (in vivo) is “irritating”.

Take `O=C(O)c1cc(=O)c2c(OCC(O)COc3cccc4oc(C(=O)O)cc(=O)c34)cccc2o1` [Cromoglycate]: the “SaO2 Measurements taken after medication and compared to baseline” value in data set [1] (setting [3]) amounted to 0. Besides, in data set [1] (setting [4]), the “SaO2 measurements taken after taking medication and compared to baseline” value is reported as “+5”. Also, in data set [1] (setting [5]), the “SaO2 Measurements taken after taking the medication and compared to baseline” value stood at 0. Besides, the “Lung functions (rating 1-10)” value is recorded as 3 in data set [1] (setting [6]), 7 in data set [1] (setting [7]) and 6 in data set [1] (setting [8]).

As for `CC(=O)N[C@H]1[C@H]([C@H](O)[C@H](O)CO)OC(C(=O)O)=C[C@@H]1N=C(N)N` [Zanamivir], in data set [1] (setting [3]), the “SaO2 Measurements taken after medication and compared to baseline” value is −2. For the same molecule, the “SaO2 measurements taken after taking medication and compared to baseline” value in data set [1] (setting [4]) was “+5”. Moreover, the “SaO2 Measurements taken after taking the medication and compared to baseline” value in data set [1] (setting [5]) is recorded as 0. Further, the figures for the “Lung functions (rating 1-10)” value in data set [1] (setting [6]), in data set [1] (setting [7]) and in data set [1] (setting [8]) were 4, 7 and 5, respectively.

Consider `CC1(C)O[C@@H]2C[C@H]3[C@@H]4C[C@H](F)C5=CC(=O)C=C[C@]5(C)[C@H]4[C@@H](O)C[C@]3(C)[C@]2(C(=O)CO)O1` [Flunisolide], for which, in data set [1] (setting [3]), the “SaO2 Measurements taken after medication and compared to baseline” value was −1. Further, in data set [1] (setting [4]), the “SaO2 measurements taken after taking medication and compared to baseline” value is “+4”. The “SaO2 Measurements taken after taking the medication and compared to baseline” value in data set [1] (setting [5]) is on record as “+1”. In addition, the “Lung functions (rating 1-10)” value in data set [1] (setting [6]), in data set [1] (setting [7]) and in data set [1] (setting [8]) was 6 throughout.

In the case of `C[C@H]1[C@H](NC(=O)/C(=N\OC(C)(C)C(=O)O)c2csc(N)n2)C(=O)N1S(=O)(=O)O` [Aztreonam], in data set [1] (setting [3]), the “SaO2 Measurements taken after medication and compared to baseline” value was −1. Further, the “SaO2 measurements taken after taking medication and compared to baseline” value in data set [1] (setting [4]) is “+4”. Also, the “SaO2 Measurements taken after taking the medication and compared to baseline” value in data set [1] (setting [5]) was found to be 0. Further, the “Lung functions (rating 1-10)” value is 8 in data set [1] (setting [6]), 7 in data set [1] (setting [7]) and 8 in data set [1] (setting [8]).

In the case of `CNC[C@H](O)c1ccc(O)c(O)c1` [Epinephrine], in data set [1] (in vivo), the “Lung functions (rating 1-10)” value was 3 and 4 and 5; the “SaO2 Measurements taken after medication and compared to baseline” value is reported as “+1”; the “SaO2 Measurements taken after taking the medication and compared to baseline” value came to 0; the “SaO2 measurements taken after taking medication and compared to baseline” value is reported as “+6”.

In the case of Levorphanol Tartrate, the “SaO2 Measurements taken after medication and compared to baseline” value in data set [1] (setting [3]) is recorded as −6. The “SaO2 measurements taken after taking medication and compared to baseline” value in data set [1] (setting [4]) was “+6”. Besides, in data set [1] (setting [5]), the “SaO2 Measurements taken after taking the medication and compared to baseline” value is recorded as “+1”. Further, the figures for the “Lung functions (rating 1-10)” value in data set [1] (setting [6]), in data set [1] (setting [7]) and in data set [1] (setting [8]) were 2, 8 and 6, respectively.

`Oc1ccc2c(c1)[C@@]13CCCC[C@@]1(O)[C@@H](C2)N(CC1CCC1)CC3` [Butorphanol]: the “SaO2 Measurements taken after medication and compared to baseline” value in data set [1] (setting [3]) is −2. For the same molecule, the “SaO2 measurements taken after taking medication and compared to baseline” value in data set [1] (setting [4]) is on record as 0. Further, the “SaO2 Measurements taken after taking the medication and compared to baseline” value in data set [1] (setting [5]) is 0. The “Lung functions (rating 1-10)” value in data set [1] (setting [6]) is reported as 6; in data set [1] (setting [7]), 9; in data set [1] (setting [8]), 7.

Regarding `CC(C)(C)NCC(O)c1ccc(O)c(CO)c1` (stereo not drawn) [Albuterol], the “SaO2 Measurements taken after medication and compared to baseline” value in data set [1] (setting [3]) was determined as 0. Also, the “SaO2 measurements taken after taking medication and compared to baseline” value in data set [1] (setting [4]) is reported as “+4”. In data set [1] (setting [5]), the “SaO2 Measurements taken after taking the medication and compared to baseline” value is “+1”. Further, the “Lung functions (rating 1-10)” value in data set [1] (setting [6]), in data set [1] (setting [7]) and in data set [1] (setting [8]) was 8 throughout.

As for Insulin, the “SaO2 Measurements taken after medication and compared to baseline” value in data set [1] (setting [3]) was −2. Also, the “SaO2 measurements taken after taking medication and compared to baseline” value in data set [1] (setting [4]) is on record as “+4”. Further, the “SaO2 Measurements taken after taking the medication and compared to baseline” value in data set [1] (setting [5]) is recorded as “+1”. The “Lung functions (rating 1-10)” value is on record as 5 in data set [1] (setting [6]), 7 in data set [1] (setting [7]) and 6 in data set [1] (setting [8]).

For `NC[C@H]1O[C@H](O[C@H]2[C@H](O)[C@@H](O[C@H]3O[C@H](CO)[C@@H](O)[C@H](N)[C@H]3O)[C@H](N)C[C@@H]2N)[C@H](N)C[C@@H]1O` [Tobramycin], the “SaO2 Measurements taken after medication and compared to baseline” value in data set [1] (setting [3]) is given as −2. Besides, the “SaO2 measurements taken after taking medication and compared to baseline” value in data set [1] (setting [4]) is “+3”. The “SaO2 Measurements taken after taking the medication and compared to baseline” value in data set [1] (setting [5]) came to 0. Moreover, the “Lung functions (rating 1-10)” value in data set [1] (setting [6]) stood at 5; in data set [1] (setting [7]), 6; in data set [1] (setting [8]), 5.

Take `N=C(N)c1ccc(OCCCCCOc2ccc(C(=N)N)cc2)cc1` [Pentamidine isethionate]: the “SaO2 Measurements taken after medication and compared to baseline” value in data set [1] (setting [3]) was −1. The “SaO2 measurements taken after taking medication and compared to baseline” value in data set [1] (setting [4]) is on record as “+2”. Further, the “SaO2 Measurements taken after taking the medication and compared to baseline” value in data set [1] (setting [5]) is recorded as “+1”. The “Lung functions (rating 1-10)” value is reported as 4 in data set [1] (setting [6]), 8 in data set [1] (setting [7]) and 5 in data set [1] (setting [8]).

On to `CN[C@H](CC(C)C)C(=O)N[C@H]1C(=O)N[C@@H](CC(N)=O)C(=O)N[C@H]2C(=O)N[C@H]3C(=O)N[C@H](C(=O)N[C@H](C(=O)O)c4cc(O)cc(O)c4-c4cc3ccc4O)[C@H](O)c3ccc(c(Cl)c3)Oc3cc2cc(c3O[C@@H]2O[C@H](CO)[C@@H](O)[C@H](O)[C@H]2O[C@H]2C[C@](C)(N)[C@H](O)[C@H](C)O2)Oc2ccc(cc2Cl)[C@H]1O` [Vancomycin], for which, in data set [1] (setting [3]), the “SaO2 Measurements taken after medication and compared to baseline” value was −1. The “SaO2 measurements taken after taking medication and compared to baseline” value in data set [1] (setting [4]) is recorded as “+1”. The “SaO2 Measurements taken after taking the medication and compared to baseline” value in data set [1] (setting [5]) was 0. Further, the entries for the “Lung functions (rating 1-10)” value in data set [1] (setting [6]), in data set [1] (setting [7]) and in data set [1] (setting [8]) were 6, 8 and 5, respectively.
